# According to patent US7378397B2 (The Provost, Fellows and Scholars of the College of the …, priority 2000, dated 2008):
# Entries after “also recorded” stand apart in the source; their conditions may differ. Where a SMILES comes first, the peptide text is derived from it. [ ]: non-standard residue; d: D form. The star is where a group is joined. hPhe = N[C@@H](CCc1ccccc1)C(=O)O; AMC = Cc1cc(=O)oc2cc(N*)ccc12; pGlu = O=C1CC[C@@H](C(=O)O)N1; Pip = O=C(O)[C@@H]1CCCCN1; NHBn = c1ccc(CN*)cc1
# What was measured:
# [1] = target: T1, TRH-DE (Sus scrofa, UniProt A0A287AP33); assay: HPLC assay of peptide hydrolysis by TRH-DE (Glp production); assay type: biochemical, porcine; conditions: for Rate of hydrolysis: peptide 1 mM, 37° C., Glp production by HPLC, mean±S.D.; for hydrolysis by TRH-DE (release of Glp): 1 mM peptide incubated with TRH-DE 18 h at 37° C., HPLC
# T1 construct: The inventor purified TRH-DE from porcine brain according to purification procedures previously published by Dr. K. Bauer; from tissue; host or cells: porcine brain (TRH-DE); bovine kidney (DPP-IV, gift from Dr. C. H. Williams)
# T1 sequence (A0A287AP33 1-1066): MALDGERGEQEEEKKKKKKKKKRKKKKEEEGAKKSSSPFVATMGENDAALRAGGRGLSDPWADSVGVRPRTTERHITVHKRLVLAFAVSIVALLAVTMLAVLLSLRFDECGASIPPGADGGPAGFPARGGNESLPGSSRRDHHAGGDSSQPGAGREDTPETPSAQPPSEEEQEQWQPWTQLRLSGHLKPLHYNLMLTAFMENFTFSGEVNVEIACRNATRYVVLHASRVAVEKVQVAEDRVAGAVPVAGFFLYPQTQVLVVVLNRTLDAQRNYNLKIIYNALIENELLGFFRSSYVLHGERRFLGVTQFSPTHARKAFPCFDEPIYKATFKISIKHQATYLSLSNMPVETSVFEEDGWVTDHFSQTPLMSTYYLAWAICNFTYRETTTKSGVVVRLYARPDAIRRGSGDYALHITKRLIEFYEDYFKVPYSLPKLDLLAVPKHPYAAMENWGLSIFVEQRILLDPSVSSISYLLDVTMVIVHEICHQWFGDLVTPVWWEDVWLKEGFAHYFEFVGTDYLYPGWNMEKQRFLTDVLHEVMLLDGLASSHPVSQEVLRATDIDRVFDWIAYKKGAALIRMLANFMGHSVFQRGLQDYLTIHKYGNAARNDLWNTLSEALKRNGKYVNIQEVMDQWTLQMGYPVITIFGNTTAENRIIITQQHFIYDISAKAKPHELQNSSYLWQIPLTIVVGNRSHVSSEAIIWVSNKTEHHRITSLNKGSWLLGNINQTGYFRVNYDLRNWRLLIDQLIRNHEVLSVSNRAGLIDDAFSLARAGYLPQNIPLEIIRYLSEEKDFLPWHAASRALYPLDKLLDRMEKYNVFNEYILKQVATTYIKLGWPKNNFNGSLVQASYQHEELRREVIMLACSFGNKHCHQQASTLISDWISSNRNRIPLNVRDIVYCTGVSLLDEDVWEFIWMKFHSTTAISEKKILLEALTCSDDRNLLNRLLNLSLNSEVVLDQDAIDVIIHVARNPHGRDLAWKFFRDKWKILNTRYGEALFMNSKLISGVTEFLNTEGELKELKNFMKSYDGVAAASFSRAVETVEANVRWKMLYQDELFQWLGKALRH
# Protocol: (§1) The inventor purified TRH-DE from porcine brain according to purification procedures previously published by Dr. K. Bauer, (Max-Planck-Institut, Hannover, Germany) (1). TRH-DE was purified almost 20,000 fold. […] Dipeptidyl peptidase IV (DPP-IV) (EC 3.4.14.5), purified from bovine kidney (7.7 mg ml^−1, specific activity of 17.5 U mg^−1 with Gly-ProAMC as substrate), was obtained as a gilt from Dr. C. H. Williams (Queen's University Belfast, U.K). (DPP-IV was used as the coupling enzyme used in the fluorometric assays).
# (§2) One unit (U) of enzyme activity was defined as that amount catalysing the formation of one μmol of product in one minute under the standard conditions employed. All incubations in the assays described below were carried out in 20 mM potassium phosphate buffer, pH 7.5, at 37° C.
# Kinetic analysis of the peptide library using HPLC—The ability of each peptide in the library to act as a TRH-DE substrate was assessed using HPLC. As an initial screen, 1 mM peptide was incubated with 0.8 μg TRH-DE in a total volume of 1 ml for 18 h at 37° C. Control samples were included in which peptide (1 mM) or Glp (0.2 mM-0.8 mM) were incubated under identical conditions in the absence of TRH-DE. TRH-DE activity was terminated by the addition of TFA (0.15% v/v) and samples were then analysed using HPLC as described previously (24). Products resulting from TRH-DE hydrolysis could be separated on a C-18 reverse-phase column (Hypersil, UK) using a linear gradient of 0-70% acetonitrile in 0.08% (v/v) TFA. The concentration of Glp formed by the action of TRH-DE on the peptide library was measured by UV absorbance at 206 nm with a quantitative detection limit of 0.1 mM for a 40 μl injection volume, employing a signal to noise ratio of 10. Following the incubation of each peptide with TRH-DE, evidence of Glp in the sample was taken to indicate that the peptide was a TRH-DE substrate.
# The rates of hydrolysis for each of those peptides identified as substrates were then compared by measuring Gip production using microassays with shorter incubation times. In these assays peptide (1 mM) was incubated at 37° C. in a total volume of 100 μl. 0.8-3.2 μg TRH-DE and incubations times of 5 min to 18 h were used routinely. Measurements were made in triplicate. The rate of TRH-OH hydrolysis was also measured by this method.
# [2] = target: T1, TRH-DE; assay: continuous coupled fluorometric TRH-DE assay (TRHAMC substrate, DPP-IV coupling enzyme); assay type: biochemical, porcine; conditions: for inhibition at 1000 µM: peptide 1 mM, 5 μM TRHAMC substrate
# Protocol: as §1, §2
# Kinetic analysis of peptides that are not hydrolysed by TRH-DE. A recently-developed continuous coupled fluorometric assay (23) was used to investigate the ability of those library peptides that were not hydrolysed by TRH-DE to inhibit TRHAMC degradation by TRH-DE. In this assay, TRHAMC is the substrate and dipeptidyl peptidase IV (DPP-IV) (EC 3.4.14.5) is the coupling enzyme. The reaction sequence is:
# The reaction was monitored continuously by measuring the increase in AMC fluorescence. A linear progress curve with no discernible lag period was observed when the reaction was monitored over a period of 10 minutes. Nevertheless, data sampling was not commenced until 100 s from the start of the reaction to ensure measurements were taken after a steady state had been reached (see Ref. 23).
# In a preliminary experiment, the peptides were screened for their ability to inhibit TRH-DE activity. The initial rate of TRHAMC hydrolysis by TRH-DE was measured by incubating 5 μM TRHAMC with 1.23 μg DPP-IV and 0.32 μg TRH-DE, both in the absence and presence of each library peptide (1 mM final concentration) under standard assay conditions (23). In each case the percentage inhibition (i%) was calculated using the equation i%=100(1-vi/vo), where vi and vo are the initial velocities in the presence and absence of peptide, respectively.
# Since these peptides were poor inhibitors they were not examined further. The Ki values for the remainder of the peptides were determined by measuring their effects on TRHAMC degradation by TRH-DE using the continuous assay. Data were collected in duplicate at five different substrate concentrations and at least three different concentrations of each peptide.
# Reversibility and time dependence of the inhibition produced by Glp-Gln-ProNH2, Glp-Asn-ProNH2 and Glp-Asn-ProAMC were examined by initially preincubating TRH-DE with each peptide at 37° C. for various periods up to 75 min. To investigate time dependence, the enzyme-peptide solution was subsequently added to the reaction mixture containing TRHAMC, DPP-IV, buffer and peptide, and TRH-DE activity was measured using the continuous assay. The final concentration of Glp-Gln-ProNH2, Glp-Asn-ProNH2 and Glp-Asn-ProAMC used was 400, 160 and 1 μM, respectively. […] TRH-DE activity was not affected by pre-incubation at 37° C.
# Fluorescence measurements were made using a Perkin Elmer LS 50B Luminescence Spectrometer fitted with a thernostated cell holder. Wavelengths for excitation and emission were set at 370 nm and 440 nm, respectively, with slit widths of 10 nm and 5 nm, respectively.
# [3] = non-linear regression, five TRHAMC concentrations and at least three peptide concentrations, mean±S.D. (n=3)
# [4] = from the percent inhibition (n = 3) in the presence of 5 μM substrate
# [5] = calculated from percent inhibition measured in duplicate at 5 μM substrate
# [6] = estimated from <20% inhibition at 1 mM peptide with the competitive inhibition relationship
compound,measurement,setting,value
[pGlu]-Arg-Pro-NH2,Rate of hydrolysis,[1],0.41 ± 0.02 (4) U mg^−1
[pGlu]-Thr-Pro-NH2,Rate of hydrolysis,[1],0.14 ± 0.01 (5) U mg^−1
NC(=O)[C@@H]1CCCN1C(=O)[C@@H]1CCCCN1C(=O)[C@@H]1CCC(=O)N1 [Glp-homoPro-ProNH2] ([pGlu]-[Pip]-Pro-NH2),Ki,[2]; [3],500 ± 133 µM
same,inhibition at 1000 µM,[2],40%
same,hydrolysis by TRH-DE (release of Glp),[1],No detectable Glp
Cc1cc(=O)oc2cc(NC(=O)[C@H](Cc3c[nH]c4ccccc34)NC(=O)[C@@H]3CCCN3C(=O)[C@H](CC(N)=O)NC(=O)[C@@H]3CCC(=O)N3)ccc12 [Glp-Asn-Pro-Trp-AMC] ([pGlu]NPW-{AMC}),Ki,[2]; [4],0.08 µM
[pGlu]-Ala-Pro-NH2,hydrolysis by TRH-DE (release of Glp),[1],not completely degraded; also recorded: only partially degraded
same,Glp produced,"[1]; 1 mM peptide, overnight incubation with TRH-DE",0.2 mM
same,Rate of hydrolysis,[1],0.02 ± 0.00 (3) U mg^−1
NC(=O)C[C@H](NC(=O)[C@@H]1CCC(=O)N1)C(=O)N1CCC[C@H]1C(=O)N[C@@H](Cc1c[nH]c2ccccc12)C(=O)N[C@@H](Cc1ccc(O)cc1)C(N)=O [Glp-Asn-Pro-Trp-Tyr-NH2] ([pGlu]NPWY-NH2),Ki,[2]; [4],5.91 µM
NC(=O)C[C@H](NC(=O)[C@@H]1CCC(=O)N1)C(=O)N1CCC[C@H]1C(=O)Nc1cccc2c1CCCC2,Ki,[2]; [5],9.31 µM
COc1ccc(NC(=O)[C@@H]2CCCN2C(=O)[C@H](CC(N)=O)NC(=O)[C@@H]2CCC(=O)N2)cc1 [p-anisidide],Ki,[2]; [5],3.24 µM
NC(=O)[C@@H]1CCCN1C(=O)[C@@H]1CCCN1C(=O)[C@@H]1CCC(=O)N1 [Glp-Pro-ProNH2] ([pGlu]-Pro-Pro-NH2),Ki,[2]; [6],> 1000 µM
same,inhibition at 1000 µM,[2],3%
same,hydrolysis by TRH-DE (release of Glp),[1],No detectable Glp
NC(=O)C[C@@H](NC(=O)[C@@H]1CCC(=O)N1)C(=O)N1CCC[C@H]1C(N)=O [Glp-D-Asn-ProNH2] ([pGlu]-[dN]-Pro-NH2),Ki,[2]; [6],> 1000 µM
same,inhibition at 1000 µM,[2],2%
same,hydrolysis by TRH-DE (release of Glp),[1],No detectable Glp
"NC(=O)C[C@H](NC(=O)[C@@H]1CCC(=O)N1)C(=O)N1CCC[C@H]1C(=O)NC1CCCc2ccccc21 (single isomer, unassigned)",Ki,[2]; [5],63.2 µM
NC(=O)C[C@H](NC(=O)[C@@H]1CCC(=O)N1)C(=O)N1CCC[C@H]1C(=O)N[C@@H](Cc1ccc(O)cc1)C(N)=O [Glp-Asn-Pro-Tyr-NH2] ([pGlu]NPY-NH2),Ki,[2]; [4],10.3 µM
Cc1cc(=O)oc2cc(NC(=O)[C@H](Cc3c[nH]c4ccccc34)NC(=O)[C@H](Cc3ccc(O)cc3)NC(=O)[C@@H]3CCCN3C(=O)[C@H](CC(N)=O)NC(=O)[C@@H]3CCC(=O)N3)ccc12 [Glp-Asn-Pro-Tyr-Trp-AMC] ([pGlu]NPYW-{AMC}),Ki,[2]; [3],0.04 µM
[pGlu]-Met-Pro-NH2,Rate of hydrolysis,[1],0.21 ± 0.03 (4) U mg^−1
"NC(=O)C[C@H](NC(=O)[C@@H]1CCC(=O)N1)C(=O)N1CCC[C@H]1C(=O)NC1CCCc2ccccc21 (single isomer, unassigned) [1,2,3,4-tetrahydro-1-naphthylamide isomer 2]",Ki,[2]; [5],22.4 µM
Glp-NorVal-ProNH2,Rate of hydrolysis,[1],0.04 ± 0.00 (6) U mg^−1
NC(=O)C[C@H](NC(=O)[C@@H]1CCC(=O)N1)C(=O)N1CCC[C@H]1C(=O)NCc1ccccc1 [Benzylamide] ([pGlu]-Asn-Pro-NHBn),Ki,[2]; [5],11.9 µM
NC(=O)C[C@H](NC(=O)[C@@H]1CCC(=O)N1)C(=O)N1CCC[C@H]1C(=O)N[C@@H](Cc1c[nH]c2ccccc12)C(N)=O [Glp-Asn-Pro-Trp-NH2] ([pGlu]NPW-NH2),Ki,[2]; [4],5.17 µM
COc1cccc(NC(=O)[C@@H]2CCCN2C(=O)[C@H](CC(N)=O)NC(=O)[C@@H]2CCC(=O)N2)c1 [m-anisidide],Ki,[2]; [5],0.86 µM
Glp-Ileu-ProNH2,Rate of hydrolysis,[1],0.06 ± 0.00 (4) U mg^−1
NC(=O)C[C@H](NC(=O)[C@@H]1CCC(=O)N1)C(=O)N1CCC[C@H]1C(=O)N[C@@H](Cc1ccc(O)cc1)C(=O)N[C@@H](Cc1c[nH]c2ccccc12)C(N)=O [Glp-Asn-Pro-Tyr-Trp-NH2] ([pGlu]NPYW-NH2),Ki,[2]; [4],0.78 µM
NC(=O)[C@@H]1CCCN1C(=O)[C@H](Cc1ccc(O)cc1)NC(=O)[C@@H]1CCC(=O)N1 [Glp-Tyr-ProNH2] ([pGlu]-Tyr-Pro-NH2),Rate of hydrolysis,[1],0.66 ± 0.04 (5) U mg^−1
[pGlu]-Lys-Pro-NH2,Rate of hydrolysis,[1],0.46 ± 0.02 (3) U mg^−1
[pGlu]-Val-Pro-NH2,Rate of hydrolysis,[1],0.05 ± 0.00 (3) U mg^−1
[pGlu]-Leu-Pro-NH2,Rate of hydrolysis,[1],0.14 ± 0.01 (5) U mg^−1
COc1ccccc1NC(=O)[C@@H]1CCCN1C(=O)[C@H](CC(N)=O)NC(=O)[C@@H]1CCC(=O)N1 [o-anisidide],Ki,[2]; [5],11.6 µM
COc1ccc(Cl)cc1NC(=O)[C@@H]1CCCN1C(=O)[C@H](CC(N)=O)NC(=O)[C@@H]1CCC(=O)N1 [5-chloro-2-methoxy anilide],Ki,[2]; [5],9.95 µM
[pGlu]-Cys-Pro-NH2,hydrolysis by TRH-DE (release of Glp),[1],no detectable cleavage
[pGlu]-[hPhe]-Pro-NH2,Rate of hydrolysis,[1],0.05 ± 0.00 (3) U mg^−1
[pGlu]-Ser-Pro-NH2,Rate of hydrolysis,[1],0.05 ± 0.00 (3) U mg^−1
NC(=O)C[C@H](NC(=O)[C@@H]1CCC(=O)N1)C(=O)N1CCC[C@H]1C(=O)Nc1ccccc1O,Ki,[2]; [5],6.62 µM
NC(=O)C[C@H](NC(=O)[C@@H]1CCC(=O)N1)C(=O)N1CCC[C@H]1C(=O)N[C@@H](Cc1c[nH]c2ccccc12)C(=O)N[C@@H](CO)C(=O)N[C@@H](Cc1ccc(O)cc1)C(N)=O [Glp-Asn-Pro-Trp-Ser-Tyr-NH2] ([pGlu]NPWSY-NH2),Ki,[2]; [4],8.11 µM
